From ChEMBL document CHEMBL3507680, “University of Dundee, Gates Library screen for HepG2 cell viability”

Assay: Human HepG2 cell viability assay in 384 well format
Format: toxicity, cell-based
Design: dose 125 nL, time 70.5 hour; cytotoxicity at 70.5 h: concentration not given beside the values
Details: HepG2 cells, read-out: Inhibition

Row | Structure (SMILES) | cytotoxicity at 70.5 h [%]
1 | CN1C(=O)CCC12CCCN(C(=O)c1ccncc1F)C2 (stereo not given) | -5.46
2 | N#Cc1nccnc1N1CCC(COCc2ccccc2)C1 (stereo not given) | -4.27
3 | CN(c1ccccc1C(=O)O)S(=O)(=O)c1cccc2cccnc12 | -6.45
4 | CCN1CCCC1CNCc1cc2ccccc2[nH]c1=O (stereo not given) | -5.02
5 | CCC[C@@H]1CN(Cc2cc3c(cc2OC)OCCO3)C[C@H]1C(=O)O | -1.36
6 | CCN(CC)[C@@H]1CN(Cc2ccc(C)o2)[C@@H]2CCCO[C@H]12 | -14.1
7 | CN1CCN(CC(=O)NCc2ccco2)Cc2ccccc21 | -13.5
8 | N#Cc1ccc(NCc2cc3n(n2)CCCN(C(=O)C2CCC2)C3)nc1 | -8.13
9 | Cc1noc(C)c1CSc1nc(=O)ccn1C(C)C | -3.07
10 | COc1ccc(C2=NOC(CC#N)C2)cc1 (stereo not given) | -1.51
11 | N[C@H]1CN(C(=O)c2ccc3[nH]c(=O)c(=O)[nH]c3c2)C[C@@H]1c1ccccc1 | -16.1
12 | N#Cc1cc(C(F)(F)F)ccc1NCC1CCS(=O)(=O)CC1 | 16.6
13 | CCOc1ncccc1C(=O)N1CCCC(n2nc(C)nc2C)C1 (stereo not given) | -11.7
14 | CN(Cc1ccccn1)C(=O)c1cc(CN2CCC(O)CC2)on1 | -16.8
15 | CSc1ccc(C(CC(=O)O)NC(=O)c2cc(C)on2)cc1 (stereo not given) | 0.955
16 | O=C1CC(c2ccccc2)C2(CCN(C(=O)c3ccncc3F)CC2)N1 (stereo not given) | -5.44
17 | COc1ccccc1-n1c(CC(C)C)nnc1SCC(=O)O | -2.95
18 | Cc1nnc(N2CCCC3(CN(Cc4cccnc4)CCO3)C2)o1 (stereo not given) | -4.29
19 | CCn1nc(C)c2nc(C(C)C)nc(N3CCCCC3)c21 | -11.3
20 | O=C(NC1CCCN(c2ccc(OC(F)F)cc2)C1)c1ccon1 (stereo not given) | -1.24
21 | Cc1cc(C)c2nc(CN3CCOCC(O)C3)cc(O)c2c1 (stereo not given) | -0.735
22 | CN1CC(c2ccccc2)CC12CCN(C(=O)c1ccc(Cl)cn1)CC2 (stereo not given) | 19.6
23 | CCc1ccc(C(NCC(N)=O)C(C)(C)C)o1 (stereo not given) | -6.31

Row | Structure (SMILES) | cytotoxicity at 70.5 h [%]
24 | CC(C)OCCCNC(=O)CN1C=Nc2ccccc2S1(=O)=O | -7.79
25 | Cc1cccc(NC(=O)[C@@H]2CCCN2Cc2nnc(C(C)C)n2C)n1 | -1.83
26 | NC(=O)N1C[C@H](NC(=O)c2cscn2)[C@@H]2OCCC[C@@H]21 | -6.33
27 | CC(=O)N1Cc2ccccc2OC2(CCN(C(=O)C3CC3)CC2)C1 | 25.4
28 | CC(=O)N1CCCCC1c1nc2c(c(N3CCCCC3)n1)CN(C)CC2 (stereo not given) | -1.02
29 | Cc1ccccc1C(=O)N1CCC2(CC1)CC(c1cnn(C)c1)CO2 (stereo not given) | -11.9
30 | COCCN1C[C@@H]2[C@@H](OC)CCN(Cc3cccc(C)n3)[C@@H]2C1 | -8.62
31 | COC(=O)C1CN(CC(=O)Nc2cc(F)ccc2F)c2ccccc21 (stereo not given) | -7.21
32 | CCCc1n[nH]c(C2CN(C(=O)CCn3ccccc3=O)CCO2)n1 (stereo not given) | -2.27
33 | CCOC(=O)c1coc(N2CCN(Cc3cccc(OC)c3)C(=O)C2)n1 | 4.55
34 | COc1ccc(CCNC(=O)N2CCCC(c3nncn3C)C2)cc1 (stereo not given) | -4.56
35 | CCOc1cc(/C=C/c2ncc(C(=O)O)s2)cc(Cl)c1OC | 9.41
36 | O=C(Cc1cn2ccccc2n1)N1CCCC(n2ccnc2)C1 (stereo not given) | -3.99
37 | CN(C)CCNC(=O)CCn1ncc2c(Cl)cccc21 | -4.46
38 | O=C(Nc1nccs1)NC1CCN(CC2CCCC2)CC1 | -13.1
39 | Cc1nn(C)c(C)c1CCC(=O)NCc1cccnc1OC1CCCC1 | -3.92
40 | O=C(COC1CCCCC1)Nc1ccn(Cc2ccccn2)n1 | -5.54
41 | CC(C)c1cc(C(=O)N2CCCC2c2nc(-c3ccccc3)no2)[nH]n1 (stereo not given) | -0.676
42 | CCCC1COCCN1Cc1ccc(NC(C)=O)cc1 (stereo not given) | -3.46
43 | Cc1ccc(N2CC[C@@H](NC(=O)c3cnccn3)[C@H](O)C2)nn1 | -7.78
44 | CN(C)c1ccc(C(=O)Nc2ccn(Cc3ccccn3)n2)cn1 | 14.6
45 | Cc1cnc(NS(=O)(=O)c2ccccc2)s1 | -10
46 | CCCN(c1ccccc1C(=O)O)S(=O)(=O)c1cccc2cccnc12 | -10.2

Row | Structure (SMILES) | cytotoxicity at 70.5 h [%]
47 | CCN1CCN(CC(O)c2ccc(F)cc2)CC1 (stereo not given) | -14.7
48 | Cc1oncc1NS(=O)(=O)c1c[nH]c2ncccc12 | -3.88
49 | CCc1nnc(NC(=O)c2c3c(nn2C2CCS(=O)(=O)C2)CCC3)s1 (stereo not given) | -6.09
50 | CN(C)C(CNC(=O)c1[nH]nc(C2CC2)c1Br)C1CC1 (stereo not given) | -5.45
51 | CCN(CC(=O)NC1(C)CCS(=O)(=O)C1)Cc1ccc(OC)c(F)c1 (stereo not given) | -9.28
52 | Fc1cccc(-c2nnn3c2COC(CNc2ncccn2)C3)c1 (stereo not given) | 26.8
53 | COc1ccc(CCN2CC(c3nc(CSC)no3)CCC2=O)cc1 (stereo not given) | -4.88
54 | O=C(CCc1nccs1)N1CCN(c2ccccn2)CC1 | 8.13
55 | COc1cccc(-n2cc(CN(C)Cc3ccnc(C(C)C)n3)cn2)c1 | -6.06
56 | O=C(c1ccc(C(F)(F)F)cc1)N1C[C@@H](CN2CCCCC2)[C@@H](CO)C1 | 3.19
57 | Cc1cc(C)nc(N2CCC(C(=O)Nc3ncc[nH]3)CC2)n1 | -7.67
58 | O=C(O)[C@@H]1CN(Cc2ccc(-c3cc[nH]n3)s2)C[C@H]1C1CC1 | -4.26
59 | CCn1cc(S(=O)(=O)NC2(CN3CCOCC3)CCCCC2)c(C)n1 | -0.203
60 | Cc1cn2c(n1)CCC(NC(=O)CNS(C)(=O)=O)C2 (stereo not given) | -4.61
61 | CC1(C)Cc2nc(C(C)(C)C)ncc2C(NC(=O)CN)C1 (stereo not given) | -10.1
62 | O=C1CC(NS(=O)(=O)N2CCOCC2)CN1CCc1ccccc1 (stereo not given) | -3.7
63 | Cc1ccc(OCC(=O)Nc2cnccc2SCCCO)cc1C | 9.63
64 | O=C(NCc1ccnc(O)c1)NCC1CCCC1 | -1.59
65 | CCOc1cccc(C(=O)Nc2ccncc2)c1 | -8.85
66 | CSc1nccc(N2CCC3(CCCN(Cc4cccc(C)c4)C3)C2)n1 (stereo not given) | -0.65
67 | Cc1nc(C)c(CC(=O)N2C[C@H]3CC[C@@H]2CN(c2cnccn2)C3)s1 | -4.55
68 | Cc1nc(CN(Cc2ccncc2)C2CCN(C)CC2)cs1 | 8.24
69 | COC(=O)COc1nc(C(C)C)no1 | -10.1

Row | Structure (SMILES) | cytotoxicity at 70.5 h [%]
70 | COc1ccccc1-c1csc(-c2cccc(C(=O)O)c2)n1 | -4.2
71 | CN(Cc1nc(C2CC2)no1)C(=O)C1COc2ccccc2C1 (stereo not given) | -0.624
72 | FC(F)CNc1cnc(C2CCNCC2)cn1 | -5.8
73 | COc1ccc2c(c1)OCC(Cc1cnccc1N)C2 (stereo not given) | -3.68
74 | CCC(CNC(=O)c1ccc(Br)o1)N1CCc2ccccc2C1 (stereo not given) | -7.37
75 | Fc1cccnc1CN1CCCCC1c1ccn2ccnc2n1 (stereo not given) | 6.23
76 | CCn1cnnc1C1CCN(C(=O)c2cccc(N(C)C)c2)CC1 | 1.66
77 | CN(C(=O)Cc1c[nH]c2ccccc12)C1CCN(c2ccccn2)CC1 | 9.62
78 | CCn1nc(C(C)C)cc1C(=O)N1CC(OCc2ccccc2F)C1 | 0.716
79 | O=S(=O)(C1CC1)N1CCC2(CC1)CC(Oc1cccnc1)CO2 (stereo not given) | -11.5
80 | CN(Cc1cc2n(n1)CCNC2)Cc1n[nH]c2c1CCC2 | -10.9
81 | Cc1ccc2oc(SCC(N)=O)nc2n1 | -21.9
82 | COc1cc(OC)cc(-c2cccc3c2OC(CN)C3)c1 (stereo not given) | 24.7
83 | CC1CCN(C(=O)c2cnn3c(-c4ccco4)ccnc23)CC1 | -8.7
84 | O=C(NCc1csc2ccccc12)NCC1(O)CCSC1 (stereo not given) | -2.26
85 | Cc1occc1CNC(=O)C1(C)CCCN1C(=O)c1ccccc1 (stereo not given) | 2.74
86 | CC(Cn1cccn1)NCc1csc(COc2ccccc2)n1 (stereo not given) | -2.25
87 | CC(NCCCn1ccnc1)c1ccc(N2CCOC2=O)cc1 (stereo not given) | 16.7
88 | CN(C)CC1CN(Cc2cccc(C(=O)N(C)C)c2)CCO1 (stereo not given) | -1.2
89 | Cc1ccc(C(C(=O)NCc2n[nH]c(N)n2)N(C)C)cc1 (stereo not given) | -5.83
90 | Cc1cc(CN2CCN(CC(O)C(C)(C)C)CC2)no1 (stereo not given) | 9.4
91 | COC(=O)c1cc(C(=O)N2CCC(OC)CC2)n(-c2ccccc2)n1 | -2.53
92 | O=C(NCCc1ccncc1)c1ccc(N2CCOCC2)cc1 | 4.27

Row | Structure (SMILES) | cytotoxicity at 70.5 h [%]
93 | CC1c2ccsc2CCN1Cc1cc2c(cc1O)OCO2 (stereo not given) | -5.73
94 | CCOCC1CN(Cc2ccc3c(c2)OCO3)Cc2ncn(C)c21 (stereo not given) | -10.5
95 | CCN1CC2(CCC1=O)CCN(Cc1nncn1C)CC2 | -5.87
96 | CCOC(=O)[C@@H]1[C@@H](O)C(=O)N(C)C12CCN(C(=O)c1ccco1)CC2 | -4.06
97 | CN(Cc1cccs1)S(=O)(=O)c1ccc(C(F)(F)F)nc1 | -20.9
98 | Cc1ncc2c(n1)CN(CCOc1ccc3c(c1)CCC(=O)N3)CC2 | -6.43
99 | Fc1ccccc1C(CNc1ccncn1)N1CCCC1 (stereo not given) | -8.28
100 | CC(c1cccc(-c2ncc(C#N)c(N)n2)c1)N(C)C (stereo not given) | -12.5
101 | O=C(Cc1ccccn1)N1CCN(CC2CC2)c2ncccc2C1 | -4.27
102 | Cc1ccc(C(=O)N2CCSCC2)cc1NC(=O)Cn1cncn1 | -6.81
103 | CN(CC1CCC1)C(=O)Nc1cccnc1-n1cncn1 | -12.4
104 | NC(=O)C1CCN(C(=O)c2ccccc2OCc2ccccc2Cl)CC1 | 12.3
105 | O=C(COc1ccccc1)N1CCC[C@]2(C[C@@H](OCC3CC3)CO2)C1 | 0.205
106 | Cc1ccc(C(=O)NC2CCN(Cc3nc(CC(C)C)no3)CC2)s1 | 1.36
107 | COc1ccc(-n2ccc(CNCc3cccc(OC)c3)n2)cc1 | 23.7
108 | Cc1nc(C2CCCN2CCc2ccccn2)no1 (stereo not given) | -5.46
109 | CCCS(=O)(=O)N1CCN(c2ccnc(N3CCCC3)n2)CC1 | -7.03
110 | O=C(CCc1cn[nH]c1)N1C[C@@H](CN2CCCCCC2)[C@@H](CO)C1 | -8.48
111 | CC(Cn1cccn1)NC(=O)NCc1cccs1 (stereo not given) | -16.6
112 | O=C([C@H]1C[C@H]2[C@H](CCN2Cc2cccs2)O1)N1CCOCC1 | -16.9
113 | Cc1noc(C)c1CN1CCn2cc(CNC(=O)C3CCC3)nc2C1 | -12.7
114 | CCc1noc(C(C)N2CCC(C)CC2)n1 (stereo not given) | -3.85
115 | c1cc2n(n1)CC(CNCc1ccc(OC3CCCC3)nc1)CN2 (stereo not given) | -14.1
